# Assay results reported in patent US20220168252A1, “RETINOID DERIVATIVES WITH ANTITUMOR ACTIVITY” (BIOGEM S.C. A R.L., priority 2016, published 2022).
# Read-outs that look alike come from different tables or passages of the source.
# What was measured:
# [1] = test system: MDA-MB231 (Breast); experiment: Anti-proliferative activity, MDA-MB231, 72 h, SRB; type: cell-based; settings: Homo sapiens, MDA-MB-231, read-out: MDA-MB231 (Breast) IC50 ± SD
# Method: (§1) The anti-proliferative activity of the POLA1/HDAC dual inhibitors MIR002 and GEM144 was assessed on various cell lines from solid and hematological cancers.
# (§2) HDAC=Histone Deacetylase. POLA1=DNA Polymerase Alpha 1. N.e.=not evaluated.
# [2] = test system: parent A2780 ovarian carcinoma; experiment: Anti-proliferative activity, A2780, 72 h, SRB; type: cell-based, human
# Method: as §1
# (§3) Human tumor cells were treated with POLA1/HDAC dual inhibitors and cell survival assessed upon 72 h with the SRB assay. HDAC=Histone Deacetylase. POLA1=DNA Polymerase Alpha 1. RI=Resistance Index.
# [3] = test system: Z138 (lymphoma); experiment: Cell survival, Z138, 72 h, MTT; type: cell-based, Human
# Method: as §1
# (§4) Tumor cells were treated with POLA1/HDAC dual inhibitors and cell survival assessed upon 72 h with the MTT assay. HDAC=Histone Deacetylase. POLA1=DNA Polymerase Alpha 1.
# [4] = test system: A2780-Dx multidrug-resistant ovarian cancer cell line; experiment: Anti-proliferative activity, A2780-Dx, 24 h + 48 h recovery, SRB; type: cell-based, Human
# Method: (§5) Tumor cells were exposed for 24 h to new atypical retinoids (AR) and the anti-proliferative activity assessed upon 48 h recovery in drug-free medium with the SRB assay. RI=Resistance Index (ratio between the IC50 values of resistant and sensitive cells).
# As described by Zuco V. et al in Neoplasia, 2005 July; 7(7):667-77, H460-R9A are about 70 fold resistant with respect to parental H460 to Adarotene. […] Ovarian cancer A2780 and its clone derivative A2780DX (Doxorubicin resistant) which overexpress P-glycoprotein (PGP), were used to evaluate the possibility of these new molecules to be absorbed at intestinal level. In fact, the overexpression of PGP, as well known, drastically reduces the possibility, after oral administration, of absorption of several chemotherapeutic agents (i.e. Paclitaxel, doxorubicin etc.). Since the IC50 of the tested compounds in A2780 and A2780DX, have similar values we conclude that they are not PGP substrates and they could be administrated to the patients via oral route.
# [5] = test system: human Pleural Epithelioid Mesothelioma MM473; experiment: Orthotopic mesothelioma model MM473 xenografted on nude mice; type: in vivo; settings: 50 mg/kg OS, bid, qdx5/wx4w
# Method: (MM473-Luc) were re-suspended at the concentration of 1×10^6 cells/40 μl M199 medium., then orthotopically injected intrapeulically with infusion of […] (with Hamilton syringe).
# Tumor growth was followed by biweekly measurements. […] Mice were weighed twice a week. […] Tumor growth was further followed by weekly BLI measurements. TGI was calculated as for the H460 trial.
# [6] = test system: Human Adarotene-resistant NCI-H460 (R9A) NSCLC; experiment: Anti-proliferative activity, H460-R9A, 24 h + 48 h recovery, SRB; type: cell-based; settings: 24 h exposure, read-out: IC50 ± SD H460-R9A
# Method: as §5
# [7] = test system: MM487-Luc mesothelioma; experiment: Anti-proliferative activity, MM487-Luc, 24 h + 48 h recovery, SRB; type: cell-based; settings: Homo sapiens, 24 h exposure, read-out: IC50 ± SD MM487-Luc
# Method: as §5
# [8] = test system: MM487-Luc mesothelioma; experiment: Anti-proliferative activity, MM487-Luc, 72 h, SRB; type: cell-based, Human; settings: for IC50: read-out: MM487-Luc IC50 ± SD
# Method: as §1, §2
# [9] = test system: NB4 (leukemia); experiment: Cell survival, NB4, 72 h, MTT; type: cell-based, Human; settings: read-out: NB4 (leukemia) IC50 ± SD
# Method: as §1, §4
# [10] = test system: parent A2780 ovarian cancer cell line; experiment: Anti-proliferative activity, A2780, 24 h + 48 h recovery, SRB; type: cell-based; settings: Homo sapiens, 24 h exposure, read-out: IC50 ± SD A2780
# Method: as §5
# [11] = test system: MDA-MB436 breast carcinoma; experiment: Anti-proliferative activity, MDA-MB436, 72 h, SRB; type: cell-based; settings: Homo sapiens, MDA-MB-436, read-out: DA-MB436 (Breast) IC50 ± SD
# Method: as §1, §2
# [12] = test system: Human NCI-H460 NSCLC; experiment: Anti-proliferative activity, NCI-H460, 24 h exposure + 48 h recovery, SRB; type: cell-based; settings: 48 h recovery in drug-free medium, SRB (Table 1)
# Method: Tumor cells were exposed for 24 h to new atypical retinoids (AR) and the anti-proliferative activity assessed upon 48 h recovery in drug-free medium with the SRB assay.
# [13] = test system: THP-1 (leukemia); experiment: Cell survival, THP-1, 72 h, MTT; type: cell-based, Human
# Method: as §1, §4
# [14] = test system: NB4 (pro-myelocytic. leukemia); experiment: Anti-proliferative activity, NB4, 24 h + 48 h recovery, MTT; type: cell-based; settings: Homo sapiens, 24 h exposure
# Method: (§6) Tumor cells were exposed for 24 h to new atypical retinoids (AR) and the anti-proliferative activity assessed upon 48 h recovery in drug-free medium with the MTT assay.
# [15] = test system: U87MG-Luc glioma; experiment: Anti-proliferative activity, U87MG-Luc, 72 h, SRB; type: cell-based; settings: Homo sapiens, read-out: 87MG-Luc (Glioma) IC50 ± SD
# Method: as §1, §2
# [16] = test system: B16-Luc (Melanoma); experiment: Anti-proliferative activity, B16-Luc, 72 h, SRB; type: cell-based, mouse; settings: for IC50: read-out: B16-Luc (Melanoma) IC50 ± SD
# Method: as §1, §2
# [17] = test system: U87MG glioblastoma cells; experiment: Anti-proliferative activity, U87MG, 24 h + 48 h recovery, SRB; type: cell-based; settings: Homo sapiens, U-87 MG, 24 h exposure, read-out: IC50 ± SD U87MG
# Method: as §5
# [18] = test system: ST1926-resistant H460 (H460-R9A) NSCLC; experiment: Anti-proliferative activity, H460-R9A, 72 h, SRB; type: cell-based, human; settings: for RI (Resistance Index): H460-R9A vs NCI-H460; for IC50: SRB, read-out: H460-R9A IC50 ± SD
# Method: as §1, §3
# [19] = test system: multidrug-resistant A2780-Dx ovarian carcinoma; experiment: Anti-proliferative activity, A2780-Dx, 72 h, SRB; type: cell-based, human; settings: for RI (Resistance Index) / IC50: 72 h; for IC50: SRB, read-out: A2780-Dx IC50 ± SD
# Method: as §1, §3
# [20] = test system: MM473-Luc mesothelioma; experiment: Anti-proliferative activity, MM473-Luc, 72 h, SRB; type: cell-based, Human; settings: for IC50: read-out: MM473-Luc IC50 ± SD
# Method: as §1, §2
# [21] = test system: U2932 (lymphoma); experiment: Cell survival, U2932, 72 h, MTT; type: cell-based, Human
# Method: as §1, §4
# [22] = test system: H460-R9A retinoid resistant cells; experiment: H460-R9A lung cancer subcutaneous xenograft in mice; settings: Cisplatin 4 mg/kg IV q7dx4w, MIR002 50 mg/kg OS bid, qdx5/wx4w
# Method: CD-1 nude and NOG mice, females, 4-5 weeks-old, were housed under specific-pathogen-free conditions in individually ventilated cages.
# Cells were cultured in appropriated media and expanded in a 37° C. incubator with saturated humidity and an atmosphere of 95% air and 5% CO2, and were sub-cultured every 2-3 days. Before the injection in mice, cells were checked with MycoAlert® Mycoplasma Detection Kit (Lonza) to exclude mycoplasma contamination, counted by trypan blue dye exclusion, evaluated for cell viability (>95%).
# H-460-R9A lung cancer cells were suspended at a concentration of 25×10^6/ml. 5×10^6 tumor cells were suspended in 0.2 ml of M199, then inoculated subcutaneously on the right flank of each animal.
# MIR002 was dissolved to a concentration of 3.3 mg/mL in 10% DMSO, 5% ethanol, 20% Kolliphor® EL and 65% Na2CO3 10 mM pH 11 and administered by gavage; Cisplatin was dissolved to a concentration of 0.8 mg/mL in sterile saline solution and administered intravenously.
# Four days after inoculation, tumor masses of H460-R9A were measured in length and width using a Mitutoyo caliper, mice were sorted basing on tumor volume (TV) and treatments were started. Tumor volume was calculated as follows: TV (mm3)=(Length (mm)×Width (mm)2)/2. Tumor growth was followed by biweekly measurements. Tumor Growth Inhibition (TGI) for each group was calculated as follows: TGI (%)=100−(mean TVtreated/mean TVcontrol×100). Mice were weighed twice a week.
# [23] = test system: MM432-Luc mesothelioma; experiment: Anti-proliferative activity, MM432-Luc, 72 h, SRB; type: cell-based; settings: Homo sapiens, read-out: MM432-Luc IC50 ± SD
# Method: as §1, §2
# [24] = test system: Human NCI-H460 NSCLC; experiment: Anti-proliferative activity, NCI-H460, 72 h, SRB; type: cell-based
# Method: as §1, §3
# [25] = test system: Z-138 mantle cell lymphoma; experiment: Anti-proliferative activity, Z-138, 24 h + 48 h recovery, MTT; type: cell-based; settings: Homo sapiens, 24 h exposure
# Method: as §6
# [26] = test system: SW620 colon carcinoma; settings: 72 h; SRB
# Method: (§7) To this end, cells in the logarithmic phase of growth were seeded in 96-wells plastic plates, incubated overnight in culture medium, and treated for 72 h with scalar concentrations (2-fold dilution series) of the compounds.
# (§8) Tumor cells were exposed to the inhibitors, and the anti-proliferative activity assessed upon 72 h with the SRB assay. N.e.=not evaluated.
# [27] = test system: DU145 prostate carcinoma; settings: 72 h; SRB
# Method: as §7, §8
# [28] = test system: HT29 colon carcinoma; settings: 72 h; SRB
# Method: as §7, §8
compound,measurement,setting,value
"O=C(O)/C=C/c1ccc(-c2ccc(OCC(=O)NO)c(C34CC5CC(CC(C5)C3)C4)c2)cc1 [Compound 8, 3-(3′-Adamantan-1-yl-4′-hydroxycarbamoylmethoxybiphenyl-4-yl)-acrylic acid]",IC50,[1],1900 ± 200 nM
same,IC50,"[2]; Homo sapiens, A2780, read-out: A2780 IC50 ± SD",600 ± 10 nM
same,IC50,"[3]; Homo sapiens, Z-138, read-out: Z138 (lymphoma) IC50 ± SD",38 ± 3 nM
same,"RI (Resistance Index, ratio between the IC50 values of resistant and sensitive cells)","[4]; A2780-Dx vs A2780, 24 h exposure",0.7
same,IC50,"[4]; Homo sapiens, A2780/DX, 24 h exposure, SRB, read-out: IC50 ± SD A2780-Dx",410 ± 5 nM
same,BWL Day + 35,[5],0%
same,TGI Day + 35,[5],77%
same,IC50,[6],2800 ± 300 nM
same,IC50,[7],4500 ± 300 nM
same,IC50,[8]; Homo sapiens,220 ± 20 nM
same,IC50,[9]; Homo sapiens,180 ± 40 nM
same,IC50,[10],600 ± 10 nM
same,IC50,[11],640 ± 30 nM
same,IC50,[12],≤ 500 nM
same,IC50,"[13]; Homo sapiens, THP-1, read-out: THP-1 (leukemia) IC50 ± SD",420 ± 20 nM
same,IC50,[14],180 ± 40 nM
same,IC50,[15],1100 ± 300 nM
same,IC50,[16]; Mus musculus,270 ± 20 nM
same,IC50,[17],1100 ± 300 nM
same,RI (Resistance Index),[18],11.2
same,IC50,"[18]; Homo sapiens, H460-R9A",2800 ± 50 nM
same,RI (Resistance Index),[19]; A2780-Dx vs A2780,0.7
same,IC50,"[19]; Homo sapiens, A2780/DX",410 ± 5 nM
same,IC50,[20]; Homo sapiens,1200 ± 60 nM
same,IC50,"[21]; Homo sapiens, U2932, read-out: U2932 (lymphoma) IC50 ± SD",520 ± 30 nM
same,BWL Day + 35,[22]; Adarotene 15 mg/Kg OS q7dx5x4w,0%
same,TGI Day + 35,[22]; combination same doses,38%
same,IC50,[23],1500 ± 80 nM
same,IC50,"[24]; Homo sapiens, NCI-H460, 72 h, SRB (Table 8), read-out: NCI-H460 IC50 ± SD",250 ± 6 nM
same,IC50,"[24]; Homo sapiens, NCI-H460, chronically exposed 72 h, SRB (Table 2), read-out: IC50 ± SD",< 500 nM
same,IC50,[25],74 ± 20 nM
CC(Oc1ccc(-c2ccc(/C=C/C(=O)O)cc2)cc1C12CC3CC(CC(C3)C1)C2)C(=O)NO (stereo not shown) [GEM144],IC50,[2]; read-out: A2780 IC50 ± SD,950 ± 40 nM
same,"cytotoxicity, Z138 lymphoma",[3],very effective
same,IC50,[3]; read-out: Z138 (lymphoma) IC50 ± SD,160 ± 30 nM
same,"cytotoxicity, MM487 mesothelioma",[8],very effective
same,IC50,[8],730 ± 200 nM
same,IC50,[9],230 ± 30 nM
same,"cytotoxicity, THP-1 leukemia",[13],very effective
same,IC50,[13]; read-out: THP-1 (leukemia) IC50 ± SD,520 ± 20 nM
same,"cytotoxicity, B16 melanoma",[16],very effective
same,IC50,[16],370 ± 30 nM
same,RI (Resistance Index),[18],8.5
same,IC50,[18],2200 ± 90 nM
same,IC50,[19],660 ± 8 nM
same,RI (Resistance Index),[19]; A2780-Dx vs A2780,0.7
same,substrate for the P-gp drug efflux pump,"[19]; indicated by low resistance index, A2780-Dx vs A2780",very poor substrate
same,"cytotoxicity, MM473 mesothelioma",[20],very effective
same,IC50,[20],1400 ± 200 nM
same,"cytotoxicity, SW620 colon carcinoma",[26],very effective
same,"cytotoxicity, DU145 prostate carcinoma",[27],very effective
same,"cytotoxicity, HT29 colon carcinoma",[28],very effective
same,"cytotoxicity, U2932 lymphoma",[21],very effective
same,IC50,[21]; read-out: U2932 (lymphoma) IC50 ± SD,770 ± 100 nM
same,IC50,"[24]; 72 h, SRB (Table 8), read-out: NCI-H460 IC50 ± SD",260 ± 9 nM
same,cytotoxic activity / IC50 range on NCI-H460 cells,"[24]; 72 h, SRB/MTT assay",nano molar range
